Assays:
[1] = Light stability test (Test Example 3); assay type: physicochemical; conditions: glass plate, uv light
Description: Into 2.0 ml of acetone were dissolved 80 mg of each test compound. A 5 μl portion of the solution was taken and spread on a glass plate (Micro Standard Cover Glass, 18 m/m No. 1, 200 pcs, Matsunami Glass Ind., Ltd.) and the acetone was evaporated. The specimen was exposed to ultraviolet light from a fluorescent lamp (Tokyo Shibaura Electric Co., Ltd., FL20BL, glow-type, 100 V, 24.5 W, wavelength=3600 A) which was fixed just above the specimen at a distance of 11 cm at a temperature of 31°-35° C. for a predetermined exposure time. The test liquid was washed away with 1.0 ml of methanol containing 0.04% of dioctyl phthalate as an internal reference and high-speed liquid chromatography was carried out on the washings to determine the residual amount of the test compound.

[2] = tested on: guppies; test: Fish toxicity test (Test Example 4); assay type: in vivo; conditions: concentration killing 50% of female guppies during 48 hours, 20° C.; [Mixture] = cis/trans 50/50
Description: The mixture was stirred well to prepare a test water. Ten female guppies from 3 to 4 months of age were released into the test water and maintained at 20° C. The concentration of the test compound at which 50% of the guppies were killed during the ensuring 48 hours was determined. [This concentration is referred to as TLm (medium tolerance limit, ppm)].
A rank corresponds to TLm of not less than 10 ppm.
B rank corresponds to TLm of 0.5-10 ppm.
C rank corresponds to TLm of not more than 0.5 ppm.

[3] = tested on: housefly (Musca domestica); test: Mortality test against houseflies by topical application (Test Example 1); assay type: in vivo; conditions: 24 h
Description: Each test compound was accurately weighed and a 1% solution and an 0.1% solution of the sample in acetone were prepared. A 1 μl portion of either of the above solutions was micropipetted onto the thoracic dorsal part of each female adult housefly (Musca domestica) under ether anaesthesia and the fly was released in a high-walled dish together with feed. The dish was covered with a metal-wire net and maintained at 25° C. After 24 hours, the test flies were inspected for deaths and the mortality (%) was calculated. Thirty test flies were used per concentration group.

[4] = tested on: common cabbage worms (Pieris rapae crucivora); conditions: common cabbage worm, in vivo, 24 h
Description: (§1) To 30 parts of each of Compounds (1) to (38) were added 50 parts of xylene and 20 parts of Sorpol SM-200 (a surfactant, trademark of Toho Chemical Co., Ltd.). The mixture was stirred well and dissolved to obtain a 30% emulsifiable concentrate.
The emulsifiable concentrate prepared from Compounds (7), (11) and (15) [Each compound is a mixture of cis- and trans-isomer in a ratio 20/80] in Formulation Example 5 were each diluted 1000-fold with water. Each of 15 common cabbage worms (Pieris rapae crucivora) per group were dipped into each of the dilutions for three seconds. Then, the worms were released on the leaves of the cabbage. After 24 hours, the worms were examined for deaths. The mortality (%) was not less than 90% for each of Compounds (7), (11) and (15).

[5] = tested on: green rice leafhoppers; test: Mortality of green rice leafhoppers on sprayed rice seedlings (Utility Example 1); conditions: green rice leafhopper, in vivo, 24 h
Description: as §1
The emulsifiable concentrate prepared from Compounds (7), (11), (12), (15), (17), (21) and (22) [Each compound is a mixture of cis- and trans-isomer in a ratio of 50/50] in Formulation Example 5 were each diluted 300-fold with water. Then, each of the dilutions was sprayed over rice seedlings 25 days after sowing at the rate of 10 ml/pot. The pot was covered with a wire net and 15 green rice leafhoppers were released under the net. After 24 hours, the leafhoppers were examined for deaths. The mortality (%) was not less than 90% for each of Compounds (7), (11), (12), (15), (17), (21) and (22).

SMILES | TLm (medium tolerance limit) [2] | mortality (%) [4] | mortality (%) [5] | also measured
C#CC(OC(=O)[C@@H]1[C@H](CC(C)(Cl)Cl)C1(C)C)c1cccc(Oc2ccccc2)c1 (relative stereo) [(13) [Cis-isomer], 3-Phenoxy-α-ethynylbenzyl 2,2-dimethyl-3-(2,2-dichloropropyl)cyclopropanecarboxylate] | A (A rank corresponds to TLm of not less than 10 ppm.) |  |  | remaining at 3.5 h [1]: 100%; remaining at 72 h [1]: 88%; remaining at 120 h [1]: 73%
C#CC(OC(=O)[C@@H]1[C@@H](CC(Cl)(Cl)Cl)C1(C)C)c1cccc(Oc2ccccc2)c1 (relative stereo) [(11) [Trans-isomer], 3-Phenoxy-α-ethynylbenzyl 2,2-dimethyl-3-(2,2,2-trichloroethyl)cyclopropanecarboxylate] | A (A rank corresponds to TLm of not less than 10 ppm.) |  |  | mortality at 1 µg/fly [3]: 100%; mortality at 10 µg/fly [3]: 100%
CC1(C)C(CC(Cl)(Cl)Cl)C1C(=O)OC(C#N)c1cccc(Oc2ccc(Cl)cc2)c1 (stereo not drawn) [(15), 3-(4-Chlorophenoxy)-α-cyanobenzyl 2,2-dimethyl-3-(2,2,2-trichloroethyl)cyclopropanecarboxylate] |  | not less than 90% | not less than 90% | 
C#CC(OC(=O)C1C(CC(Cl)(Cl)Cl)C1(C)C)c1cccc(Oc2ccccc2)c1 (stereo not drawn) [Compound (11), 3-Phenoxy-α-ethynylbenzyl 2,2-dimethyl-3-(2,2,2-trichloroethyl)cyclopropanecarboxylate] |  | not less than 90% | not less than 90% | 
CC1(C)C(CC(Cl)(Cl)Cl)C1C(=O)OC(C#N)c1cccc(Oc2ccccc2)c1 (stereo not drawn) [Compound (7), 3-Phenoxy-α-cyanobenzyl 2,2-dimethyl-3-(2,2,2-trichloroethyl)cyclopropanecarboxylate] |  | not less than 90% | not less than 90% | 

Reference: patent US4390547A, “2,2-Dimethyl-3-(substituted ethyl)cyclopropane carboxylate pesticidal compositions and methods” (priority 1981, dated 1983)
